According to PubChem BioAssay AID248 (DTP/NCI, 2004):
Values joined by “and” are separate entries in the source; they are usually repeats but may differ in a detail not shown here. Identical values can stand only once. Inconclusive results and toxic doses are left out. Cut-off read from the data, not from the text of the source: active = T/C of 150% or more; inactive = T/C below 125%.

Test system: L1210 leukemia ip in BDF1 mice, survival T/C
Test: NCI In Vivo Anticancer Drug Screen. Data for tumor model L1210 Leukemia (intraperitoneal) in B6D2F1 (BDF1) mice
Conditions: endpoint: mean survival time, higher = longer survival
How it was run: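 Read-out is survival time, reported as the treated-group measurement over the vehicle-control measurement.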

[1] = dose: 100.0 mg/kg/injection, schedule: Q01DX009 (ip), vehicle: Klucel (hydroxypropylcellulose) (HPC)
[2] = dose: 100.0 mg/kg/injection, schedule: Q04DX003 (ip), vehicle: Klucel (hydroxypropylcellulose) (HPC)
[3] = dose: 200.0 mg/kg/injection, schedule: Q01DX009 (ip), vehicle: Klucel (hydroxypropylcellulose) (HPC)
[4] = dose: 200.0 mg/kg/injection, schedule: Q04DX003 (ip), vehicle: Klucel (hydroxypropylcellulose) (HPC)
[5] = dose: 400.0 mg/kg/injection, schedule: Q01DX009 (ip), vehicle: Klucel (hydroxypropylcellulose) (HPC)
[6] = dose: 400.0 mg/kg/injection, schedule: Q04DX003 (ip), vehicle: Klucel (hydroxypropylcellulose) (HPC)
[7] = dose: 100.0 mg/kg/injection, schedule: Q04DX002 (ip), vehicle: saline with Tween-80
[8] = dose: 200.0 mg/kg/injection, schedule: Q04DX002 (ip), vehicle: saline with Tween-80
[9] = dose: 400.0 mg/kg/injection, schedule: Q04DX002 (ip), vehicle: saline with Tween-80
[10] = dose: 12.5 mg/kg/injection, schedule: Q01DX009 (ip), vehicle: Klucel (hydroxypropylcellulose) (HPC)
[11] = dose: 25.0 mg/kg/injection, schedule: Q01DX009 (ip), vehicle: Klucel (hydroxypropylcellulose) (HPC)
[12] = dose: 50.0 mg/kg/injection, schedule: Q01DX009 (ip), vehicle: Klucel (hydroxypropylcellulose) (HPC)
[13] = dose: 100.0 mg/kg/injection, schedule: Q01DX001 (ip), vehicle: other
[14] = dose: 200.0 mg/kg/injection, schedule: Q01DX001 (ip), vehicle: other
[15] = dose: 100.0 mg/kg/injection, schedule: Q01DX001 (ip), vehicle: saline with Tween-80
[16] = dose: 200.0 mg/kg/injection, schedule: Q01DX001 (ip), vehicle: saline with Tween-80
[17] = dose: 400.0 mg/kg/injection, schedule: Q01DX001 (ip), vehicle: saline with Tween-80
[18] = dose: 100.0 mg/kg/injection, schedule: Q04DX003 (ip), vehicle: saline with Tween-80
[19] = dose: 200.0 mg/kg/injection, schedule: Q04DX003 (ip), vehicle: saline with Tween-80
[20] = dose: 400.0 mg/kg/injection, schedule: Q04DX003 (ip), vehicle: saline with Tween-80
[21] = dose: 100.0 mg/kg/injection, schedule: Q01DX001 (ip), vehicle: saline
[22] = dose: 200.0 mg/kg/injection, schedule: Q01DX001 (ip), vehicle: saline
[23] = dose: 400.0 mg/kg/injection, schedule: Q01DX001 (ip), vehicle: saline

Measured: T/C

Cc1cccc(C)c1NC(=O)Nc1ccc(Cl)c(Cl)c1
inactive: [1] 97 % of control | [2] 95 % of control | [3] 94 % of control | [4] 86 % of control | [5] 94 % of control | [6] 91 % of control

COC(=O)c1c2cccccc-2c(C(=O)OC)c1N
inactive: [7] 97 % of control | [8] 91 % of control | [9] 94 % of control

O=P(N=C=S)(N=C=S)N=C=S
inactive: dose: 75.0 mg/kg/injection, schedule: Q01DX001 (ip), vehicle: other 114 % of control

Clc1c(C(Cl)(Cl)Cl)nc2ccccc2c1Cl
inactive: [10] 115 % of control | [11] 107 % of control | [12] 86 % of control

COc1cc(N=Nc2ccc3c(c2)Cc2ccccc2-3)c(OC)cc1N
inactive: [13] 111 % of control | [14] 88 % of control | dose: 400.0 mg/kg/injection, schedule: Q01DX001 (ip), vehicle: other 105 % of control

CC(C)CCCC(C)C1CCC2C3CCC4CC(I)CCC4(C)C3CCC12C (stereo not drawn)
inactive: [15] 93 % of control | [16] 95 % of control | [17] 90 % of control

CC1(C)CCC2(CC1)CC(=O)OC2=O
inactive: [18] 95 % of control | [19] 97 % of control | [20] 98 % of control

N/N=C\c1cnnc2ccccc12
inactive: [21] 95 % of control | [22] 95 % of control | [23] 98 % of control

CCCc1ccc(OC/C=C(\C)CCC2OC2(C)CC)cc1 (stereo not drawn)
inactive: [7] 92 % of control | [8] 99 % of control | [9] 92 % of control

O=c1[nH]c(=O)n(Cc2ccccc2)cc1Cc1cccc(OCc2ccccc2)c1
inactive: [18] 97 % of control | [19] 96 % of control | [20] 97 % of control

CC(=O)N1C=Cn2c(cnc2C)C1O (stereo not drawn)
inactive: dose: 100.0 mg/kg/injection, schedule: Q01DX009 (ip), vehicle: water 104 % of control | dose: 100.0 mg/kg/injection, schedule: Q04DX003 (ip), vehicle: water 109 % of control | dose: 200.0 mg/kg/injection, schedule: Q01DX009 (ip), vehicle: water 94 % of control | dose: 200.0 mg/kg/injection, schedule: Q04DX003 (ip), vehicle: water 102 % of control | dose: 400.0 mg/kg/injection, schedule: Q04DX003 (ip), vehicle: water 98 % of control

CCCCC(CC)C1NC(=O)N(SC(Cl)(Cl)Cl)C1=O (stereo not drawn)
inactive: dose: 12.5 mg/kg/injection, schedule: Q01DX009 (ip), vehicle: saline with Tween-80 103 % of control | dose: 25.0 mg/kg/injection, schedule: Q01DX009 (ip), vehicle: saline with Tween-80 92 % of control | dose: 50.0 mg/kg/injection, schedule: Q01DX009 (ip), vehicle: saline with Tween-80 101 % of control and 106 % of control

COc1ccc(CCC2(C=O)CNCN2)cc1 (stereo not drawn)
inactive: [13] 98 % of control | [14] 93 % of control

C=C(Cl)CSCCS
inactive: [18] 95 % of control | [19] 106 % of control

O=C(N/N=C/c1ccc2c(c1)CCC2)c1ccc(S(=O)(=O)O)cc1
inactive: [2] 97 % of control | [4] 104 % of control | [6] 97 % of control

CCCc1nc2c(OC)ccc(OC)c2nc1C
inactive: [10] 98 % of control | [11] 97 % of control | [12] 92 % of control | [1] 94 % of control | dose: 100.0 mg/kg/injection, schedule: Q04DX003 (ip), vehicle: acetone 97 % of control | [3] 86 % of control | dose: 200.0 mg/kg/injection, schedule: Q04DX003 (ip), vehicle: acetone 97 % of control | dose: 400.0 mg/kg/injection, schedule: Q04DX003 (ip), vehicle: acetone 98 % of control

CC(C)CCCC(C)CCCC(C)CCCC(C)CC(=O)O (stereo not drawn)
inactive: dose: 100.0 mg/kg/injection, schedule: Q01DX001 (ip), vehicle: olive oil, sesame oil, peanut oil 103 % of control | dose: 200.0 mg/kg/injection, schedule: Q01DX001 (ip), vehicle: olive oil, sesame oil, peanut oil 101 % of control | dose: 400.0 mg/kg/injection, schedule: Q01DX001 (ip), vehicle: olive oil, sesame oil, peanut oil 91 % of control

COc1ccc2c(c1)CCC1=C2CCC(C)(C(=O)O)N1 (stereo not drawn)
inactive: dose: 100.0 mg/kg/injection, schedule: Q01DX009 (ip), vehicle: saline with Tween-80 98 % of control | dose: 200.0 mg/kg/injection, schedule: Q01DX009 (ip), vehicle: saline with Tween-80 95 % of control | dose: 400.0 mg/kg/injection, schedule: Q01DX009 (ip), vehicle: saline with Tween-80 87 % of control

COC1(C#N)C(=O)c2ccccc2C1=O
inactive: [15] 97 % of control | [16] 108 % of control | [17] 94 % of control

O=[N+]([O-])c1cccc(P(=O)(O)O)c1
inactive: dose: 50.0 mg/kg/injection, schedule: Q01DX001 (ip), vehicle: saline 115 % of control | [21] 107 % of control | [22] 97 % of control | [23] 103 % of control

O=C(O)CCCCCNC(=O)OCc1ccccc1
inactive: dose: 100.0 mg/kg/injection, schedule: Q01DX009 (ip), vehicle: gum acacia 102 % of control | dose: 100.0 mg/kg/injection, schedule: Q04DX003 (ip), vehicle: gum acacia 91 % of control | dose: 200.0 mg/kg/injection, schedule: Q01DX009 (ip), vehicle: gum acacia 103 % of control | dose: 200.0 mg/kg/injection, schedule: Q04DX003 (ip), vehicle: gum acacia 93 % of control | dose: 400.0 mg/kg/injection, schedule: Q01DX009 (ip), vehicle: gum acacia 86 % of control | dose: 400.0 mg/kg/injection, schedule: Q04DX003 (ip), vehicle: gum acacia 91 % of control

O=C(NCCCCCCCCCCNC(=O)Nc1cccc(C2=NCC(O)CN2)c1)Nc1cccc(C2=NCC(O)CN2)c1 (stereo not drawn)
inactive: dose: 5.25 mg/kg/injection, schedule: Q01DX Z (ip), vehicle: carboxymethylcellulose (CMC) 106 % of control | dose: 10.5 mg/kg/injection, schedule: Q01DX Z (ip), vehicle: carboxymethylcellulose (CMC) 117 % of control | dose: 21.0 mg/kg/injection, schedule: Q01DX Z (ip), vehicle: carboxymethylcellulose (CMC) 103 % of control | dose: 42.0 mg/kg/injection, schedule: Q01DX Z (ip), vehicle: carboxymethylcellulose (CMC) 97 % of control

CC(=O)Nc1ccc(/C=N\NC(=O)C2CC2)cc1
inactive: [2] 100 % of control | [4] 87 % of control | [6] 87 % of control

CCN(CC)CCC(CCN(CC)CC)(CNC(=O)CN(CC)CC)c1cccc2ccccc12
inactive: dose: 12.5 mg/kg/injection, schedule: Q01DX009 (ip), vehicle: saline 97 % of control | dose: 12.5 mg/kg/injection, schedule: Q04DX003 (ip), vehicle: saline 87 % of control | dose: 25.0 mg/kg/injection, schedule: Q01DX009 (ip), vehicle: saline 114 % of control | dose: 25.0 mg/kg/injection, schedule: Q04DX003 (ip), vehicle: saline 95 % of control | dose: 50.0 mg/kg/injection, schedule: Q01DX009 (ip), vehicle: saline 108 % of control | dose: 50.0 mg/kg/injection, schedule: Q04DX003 (ip), vehicle: saline 88 % of control

COc1ccc2c(c1)c(=O)c(C(=O)O)cn2CCCOc1ccc([N+](=O)[O-])cc1
inactive: [1] 96 % of control | dose: 100.0 mg/kg/injection, schedule: Q04DX003 (ip), vehicle: saline 107 % of control | [3] 106 % of control | dose: 200.0 mg/kg/injection, schedule: Q04DX003 (ip), vehicle: saline 100 % of control | [5] 93 % of control | dose: 400.0 mg/kg/injection, schedule: Q04DX003 (ip), vehicle: saline 94 % of control

CN(C)P(N)(N)=O
inactive: dose: 100.0 mg/kg/injection, schedule: Q01DX009 (ip), vehicle: saline 101 % of control | [2] 97 % of control | dose: 200.0 mg/kg/injection, schedule: Q01DX009 (ip), vehicle: saline 97 % of control | [4] 101 % of control | dose: 400.0 mg/kg/injection, schedule: Q01DX009 (ip), vehicle: saline 103 % of control | [6] 100 % of control
